Test results taken from ChEMBL document CHEMBL5390201, “The Natural Alkaloid (-)-N-Hydroxyapiosporamide Suppresses Colorectal Tumor Progression as an NF-κB Pathway Inhibitor by Targeting the TAK1-TRAF6 Complex” (J Nat Prod, 2023).
The source made the active and inactive calls. The rule behind the calls is not given here.

Tests used:
[1] = test system: HT-29; assay: Induction of apoptosis in human HT-29 cells assessed as necrotic cells at 0.5 uM incubated for 24 hrs by Annexin V-FITC/PI staining based flow cytometric analysis (reference value: 0.14 %); format: functional
[2] = test system: HT-29; assay: Antitumor activity against human HT-29 cells xenografted in athymic nude BALB/c mouse assessed as reduction in tumor weight at 5 to 15 mg/kg, ip administered every other day and measured every other day for 16 days; format: functional, organism-based; settings: dose 5-15 mg/kg, time 16.0 day
[3] = Toxicity in athymic nude BALB/c mouse assessed as change in serum AST level at 5 to 15 mg/kg, ip administered every other day and measured after 14 days; format: organism-based; settings: in vivo, 336 h, dose 5-15 mg/kg, time 14 day
[4] = test system: HT-29; assay: Induction of apoptosis in human HT-29 cells assessed as early apoptotic cells at 5 uM preincubated with Z-VAD-FMK for 1 hr followed by compound addition and measured after 24 hrs by Annexin V-FITC/PI staining based flow cytometric analysis (reference value: 4.05 %); format: functional
[5] = test system: HCT-116; assay: Cytotoxicity against human HCT-116 cells assessed as decrease in cell viability incubated for 48 hrs by SRB assay; format: functional, cell-based; settings: HCT-116, 48 h
[6] = test system: HCT-116; assay: Induction of cell cycle arrest in human HCT-116 cells assessed as accumulation of cells at G2/M phase at 10 uM by RNase/PI staining based flow cytometry analysis (reference value: 23.15 %); format: functional
[7] = test system: HT-29; assay: Induction of cell cycle arrest in human HT-29 cells assessed as accumulation of cells at G2/M phase at 10 uM by RNase/PI staining based flow cytometry analysis (reference value: 9.93 %); format: functional
[8] = test system: HT-29; assay: Induction of cell cycle arrest in human HT-29 cells assessed as accumulation of cells at G2/M phase at 1 uM by RNase/PI staining based flow cytometry analysis (reference value: 9.93 %); format: functional
[9] = test system: HT-29; assay: Induction of cell cycle arrest in human HT-29 cells assessed as accumulation of cells at S phase at 10 uM by RNase/PI staining based flow cytometry analysis (reference value: 39.34%); format: functional
[10] = test system: HT-29; assay: Induction of cell cycle arrest in human HT-29 cells assessed as accumulation of cells at S phase at 5 uM by RNase/PI staining based flow cytometry analysis (reference value: 39.34%); format: functional
[11] = test system: HCT-116; assay: Induction of cell cycle arrest in human HCT-116 cells assessed as decrease in CDK2 protein expression upto 10 uM incubated for 24 hrs by Western blot analysis; format: functional, cell-based
[12] = test system: HCT-116; assay: Induction of cell cycle arrest in human HCT-116 cells assessed as decrease in P-cdc2 protein expression upto 10 uM incubated for 24 hrs by Western blot analysis; format: functional, cell-based
[13] = test system: HCT-116; assay: Induction of apoptosis in human HCT-116 cells assessed as early apoptotic cells at 0.5 uM incubated for 24 hrs by Annexin V-FITC/PI staining based flow cytometric analysis (reference value: 7.22 %); format: functional
[14] = test system: HCT-116; assay: Induction of apoptosis in human HCT-116 cells assessed as late apoptotic cells at 10 uM incubated for 24 hrs by Annexin V-FITC/PI staining based flow cytometric analysis (reference value: 2.9 %); format: functional
[15] = test system: HCT-116; assay: Induction of apoptosis in human HCT-116 cells assessed as necrotic cells at 0.5 uM incubated for 24 hrs by Annexin V-FITC/PI staining based flow cytometric analysis (reference value: 1.1 %); format: functional
[16] = test system: HT-29; assay: Induction of apoptosis in human HT-29 cells assessed as early apoptotic cells at 0.25 uM incubated for 24 hrs by Annexin V-FITC/PI staining based flow cytometric analysis (reference value: 5.29 %); format: functional
[17] = test system: HCT-116; assay: Induction of apoptosis in human HCT-116 cells assessed as inhibition of caspase 8 protein expression measured for 24 hrs by Western blot analysis; format: functional, cell-based; settings: dose 0-10 µM
[18] = test system: HT-29; assay: Induction of apoptosis in human HT-29 cells assessed as inhibition of caspase 8 protein expression measured for 24 hrs by Western blot analysis; format: functional, cell-based; settings: dose 0-10 µM
[19] = test system: HT-29; assay: Induction of apoptosis in human HT-29 cells assessed as late apoptotic cells at 5 uM preincubated with Z-VAD-FMK for 1 hr followed by compound addition and measured after 24 hrs by Annexin V-FITC/PI staining based flow cytometric analysis (reference value: 7.01 %); format: functional
[20] = biological target: T1, Nuclear factor NF-kappa-B complex (Homo sapiens) (UniProt Q00653+P19838+Q04206); assay: Inhibition of TNF-alpha induced NFkappaB activation in human HT-29 cells assessed as inhibition of IL-8 production at 2 uM pretreated for 24 hrs followed by TNFalpha stimulation for 4 hrs by ELISA; format: cell-based; settings: time 28.0 hrs
[21] = test system: RAW264.7; assay: Inhibition of LPS-induced NFkappaB activation in mouse RAW264.7 cells assessed as inhibition of IkappaBalpha phosphorylation preincubated for 24 hrs followed by LPS stimulation for 3 hrs by Western blot analysis; format: cell-based; settings: dose 1-10 µM, time 27.0 hrs
[22] = biological target: T1, Nuclear factor NF-kappa-B complex (Homo sapiens); assay: Inhibition of NFkappaB activation in HEK293T cells transfected with HA-tagged TAB2 and kappaB luciferase/pTK-renilla reporters at 2 uM incubated for 6 hrs by Dual Luciferase Reporter Assay; format: cell-based; settings: HEK-293T
[23] = biological target: T1, Nuclear factor NF-kappa-B complex (Homo sapiens); assay: Inhibition of NFkappaB activation in HEK293T cells transfected with HA-tagged p65 and kappaB luciferase/pTK-renilla reporters at 2 uM incubated for 6 hrs by Dual Luciferase Reporter Assay; format: cell-based; settings: HEK-293T
[24] = Toxicity in athymic nude BALB/c mouse xenografted with human HT-29 cells assessed as pathological changes in kidney at 5 to 15 mg/kg, ip administered every other day and measured after 14 days by hematoxylin and eosin staining-based microscopic analysis; format: organism-based; settings: in vivo, 336 h, dose 5-15 mg/kg, time 14 day
[25] = Toxicity in athymic nude BALB/c mouse xenografted with human HCT-116 cells assessed as pathological changes in spleen at 5 to 15 mg/kg, ip administered every other day and measured after 14 days by hematoxylin and eosin staining-based microscopic analysis; format: organism-based; settings: in vivo, 336 h, dose 5-15 mg/kg, time 14 day
[26] = Toxicity in athymic nude BALB/c mouse xenografted with human HT-29 cells assessed as pathological changes in spleen at 5 to 15 mg/kg, ip administered every other day and measured after 14 days by hematoxylin and eosin staining-based microscopic analysis; format: organism-based; settings: in vivo, 336 h, dose 5-15 mg/kg, time 14 day
[27] = Plasma clearance in Sprague-Dawley rat at 10 mg/kg, ip measured for 24 hrs by HPLC-MS/MS analysis; format: ADME, organism-based
[28] = test system: Mus musculus; assay: Anti-inflammatory activity in AOM/DSS-induced BALB/c mouse model inflammatory bowel disease assessed as reduction in colon thickness at 5 to 10 mg/kg, ip pretreated with AOM for 7 days further replaced with DSS for 7 days and repeated for 2 times followed by every 2 days compound treatment for […] starting from day 50 and measured once a week; format: functional, organism-based; settings: dose 5-10 mg/kg, time 21.0 day
[29] = test system: Mus musculus; assay: In vivo inhibition of NFkappaB activation in AOM/DSS-induced inflammatory bowel disease BALB/c mouse model assessed as inhibition of serum IL-8 production at 5 to 10 mg/kg, ip pretreated with AOM for 7 days further replaced with DSS for 7 days and repeated for 2 times followed by every 2 days compound treatment for […] starting from day 50 by ELISA; format: functional, organism-based; settings: dose 5-10 mg/kg, time 21.0 day
[30] = test system: HCT-116; assay: Induction of cell death in human HCT-116 cells at 0.5 to 10 uM pretreated with Z-VAD-FMK for 1 hr followed by compound addition and measured after 24 hrs by SRB assay; format: functional, cell-based; settings: dose 0.5-10 µM
[31] = test system: HCT-116; assay: Induction of autophagic cell death in human HCT-116 cells at 1 to 10 uM pretreated with 3-methyladenine for 1 hr followed by compound addition and measured after 24 hrs by SRB assay; format: functional, cell-based; settings: dose 1-10 µM

T1 sequence (P19838 whole entry, looked up): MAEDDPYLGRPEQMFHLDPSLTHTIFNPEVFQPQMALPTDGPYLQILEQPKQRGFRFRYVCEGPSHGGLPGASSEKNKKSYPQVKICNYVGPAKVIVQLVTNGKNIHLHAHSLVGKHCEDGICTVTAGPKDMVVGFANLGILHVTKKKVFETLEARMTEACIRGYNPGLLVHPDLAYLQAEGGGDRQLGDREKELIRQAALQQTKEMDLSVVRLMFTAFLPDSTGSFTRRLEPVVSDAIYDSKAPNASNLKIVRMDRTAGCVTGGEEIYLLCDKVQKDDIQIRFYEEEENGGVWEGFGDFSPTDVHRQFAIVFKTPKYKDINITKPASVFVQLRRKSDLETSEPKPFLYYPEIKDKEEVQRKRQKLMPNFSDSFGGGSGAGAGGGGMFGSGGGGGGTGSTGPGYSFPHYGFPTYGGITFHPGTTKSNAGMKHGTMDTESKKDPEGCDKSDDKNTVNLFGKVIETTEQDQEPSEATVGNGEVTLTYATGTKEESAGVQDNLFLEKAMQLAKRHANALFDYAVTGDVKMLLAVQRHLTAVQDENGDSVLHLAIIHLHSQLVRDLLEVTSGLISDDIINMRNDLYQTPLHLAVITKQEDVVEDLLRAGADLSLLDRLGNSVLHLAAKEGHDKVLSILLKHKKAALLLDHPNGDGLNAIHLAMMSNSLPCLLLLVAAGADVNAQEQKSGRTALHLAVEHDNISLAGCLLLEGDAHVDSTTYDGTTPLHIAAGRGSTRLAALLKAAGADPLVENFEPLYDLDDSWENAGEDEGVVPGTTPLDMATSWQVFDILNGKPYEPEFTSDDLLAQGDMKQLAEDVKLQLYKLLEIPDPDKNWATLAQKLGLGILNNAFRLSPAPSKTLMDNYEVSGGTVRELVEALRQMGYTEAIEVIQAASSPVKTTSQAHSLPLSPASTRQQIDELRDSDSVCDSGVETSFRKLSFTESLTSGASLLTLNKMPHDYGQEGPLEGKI
T1 sequence (Q00653 whole entry, looked up): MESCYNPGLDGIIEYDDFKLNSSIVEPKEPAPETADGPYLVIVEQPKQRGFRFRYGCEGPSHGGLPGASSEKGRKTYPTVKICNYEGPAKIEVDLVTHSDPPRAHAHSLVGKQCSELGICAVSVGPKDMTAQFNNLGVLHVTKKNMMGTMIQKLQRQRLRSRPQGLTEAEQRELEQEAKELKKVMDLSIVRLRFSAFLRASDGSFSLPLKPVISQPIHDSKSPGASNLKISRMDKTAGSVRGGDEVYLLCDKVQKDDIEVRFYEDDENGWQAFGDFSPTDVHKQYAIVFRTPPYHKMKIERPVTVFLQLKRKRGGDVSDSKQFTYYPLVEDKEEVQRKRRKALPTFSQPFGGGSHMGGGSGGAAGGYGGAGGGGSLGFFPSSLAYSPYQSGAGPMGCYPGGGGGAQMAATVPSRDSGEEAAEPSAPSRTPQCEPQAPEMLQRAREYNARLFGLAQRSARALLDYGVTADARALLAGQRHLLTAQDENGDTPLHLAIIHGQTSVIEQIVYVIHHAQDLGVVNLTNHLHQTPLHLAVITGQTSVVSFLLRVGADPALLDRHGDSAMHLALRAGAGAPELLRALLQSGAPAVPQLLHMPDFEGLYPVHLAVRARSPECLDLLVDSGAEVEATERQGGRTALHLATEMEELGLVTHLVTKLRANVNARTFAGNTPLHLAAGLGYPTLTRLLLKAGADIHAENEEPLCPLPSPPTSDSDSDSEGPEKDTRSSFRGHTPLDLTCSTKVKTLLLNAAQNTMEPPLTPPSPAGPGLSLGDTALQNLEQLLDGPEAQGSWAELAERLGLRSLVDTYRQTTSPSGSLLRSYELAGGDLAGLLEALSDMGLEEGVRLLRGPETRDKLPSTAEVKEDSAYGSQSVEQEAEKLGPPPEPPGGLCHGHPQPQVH
T1 sequence (Q04206 whole entry, looked up): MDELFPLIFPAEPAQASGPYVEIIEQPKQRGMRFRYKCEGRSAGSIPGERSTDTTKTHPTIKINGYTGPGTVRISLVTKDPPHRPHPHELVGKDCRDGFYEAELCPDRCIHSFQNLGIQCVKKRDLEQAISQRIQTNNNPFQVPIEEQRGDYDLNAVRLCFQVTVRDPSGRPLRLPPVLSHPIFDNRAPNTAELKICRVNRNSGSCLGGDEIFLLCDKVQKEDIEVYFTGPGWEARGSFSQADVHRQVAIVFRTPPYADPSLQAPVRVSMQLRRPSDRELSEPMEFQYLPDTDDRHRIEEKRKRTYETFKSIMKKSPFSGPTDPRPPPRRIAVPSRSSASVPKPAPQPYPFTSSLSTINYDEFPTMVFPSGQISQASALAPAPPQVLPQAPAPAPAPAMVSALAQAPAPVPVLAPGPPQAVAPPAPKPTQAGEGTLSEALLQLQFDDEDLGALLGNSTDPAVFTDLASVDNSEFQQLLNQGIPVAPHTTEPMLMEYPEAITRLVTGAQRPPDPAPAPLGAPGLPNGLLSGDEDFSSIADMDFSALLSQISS

In the case of `C[C@@H]1CC[C@H]2[C@H](C(=O)c3c(O)c([C@@]4(O)CC[C@@H](O)[C@H]5O[C@H]54)cn(O)c3=O)[C@H](C)C=C[C@@H]2C1`, the Activity [1] is reported as 0.2%, the Activity [2] is reported as “Active” and the Activity [3] is reported as “Non-Toxic”. It also gave an Activity [4] of 17.1%, an IC50 [5] of 930 nM and an Activity [6] of 14.17%. For the same compound, the Activity [7] was 0.78%, the Activity [8] was 7.08% and the Activity [9] was 26.65%. The Activity [10] was 32.46%, the Activity [11] was “Active” and the Activity [12] was “Active”. The Activity [13] was 13.2%, the Activity [14] was 75% and the Activity [15] was 2.54%. For the same compound, the Activity [16] was 12.6%, the Activity [17] was “Dose-Dependent Effect” and the Activity [18] was “Dose-Dependent Effect”. The Activity [19] was 17.2%, the inhibition [20] was “Active” and the inhibition [21] was “Dose-Dependent Effect”. The inhibition [22] was “Active”, the inhibition [23] was “Active” and the Activity [24] was “Non-Toxic”. For the same compound, the Activity [25] was “Non-Toxic”, the Activity [26] was “Non-Toxic” and the CL/F [27] was 27 mL/min/kg. For the same compound, the Activity [28] was “Active”, the inhibition [29] was “Active” and the inhibition [30] was “inactive”. The Activity [31] was “inactive”.
